Test results as given in patent US20090099192A1, “Substituted 1H-pyrrole-2,5-diones” (Bayer CropScience AG, priority 2004, published 2009).

How the values were obtained:
[1] = test system: larvae of the mustard beetle (Phaedon cochleariae); assay: Phaedon larvae test (cabbage leaves dipped); type: in vivo; details: for Kill rate in % after 7 d: leaf dip, Brassica oleracea
Protocol: [table] To produce a suitable preparation of active compound, 1 part by weight of active compound is mixed with the stated amount of solvent and the stated amount of emulsifier, and the concentrate is diluted with water to the desired concentration. Cabbage leaves (Brassica oleracea) are treated by being dipped into the active compound preparation of the desired concentration and populated with larvae of the mustard beetle (Phaedon cochleariae) while the leaves are still moist. After the desired period of time, the kill in % is determined. 100% means that all beetle larvae have been killed; 0% means that none of the beetle larvae have been killed.

[2] = logP determination by HPLC on reversed-phase column (C 18), EEC Directive 79/831 Annex V.A8; type: physicochemical; details: reversed-phase C 18, 43° C., acid range (0.1% aqueous phosphoric acid, acetonitrile), marked a)
Procedure, shortened: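 Reversed-phase C18 HPLC at 43° C, per EEC Directive 79/831 Annex V.A8, acid range: 0.1% aqueous phosphoric acid with linear 10–90% acetonitrile gradient. logP derived from retention time by linear interpolation between calibrating unbranched alkan-2-ones (C3–C16) of known logP.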

[3] = test system: caterpillars of the army worm (Spodoptera frugiperda); assay: Spodoptera frugiperda test (corn leaf disks sprayed); type: in vivo; details: for Kill rate in % after 7 d: 500 g/ha, spray, Zea mays leaf disks
Protocol: (§1) [table] To produce a suitable preparation of active compound, 1 part by weight of active compound is mixed with the stated amounts of solvents and emulsifier, and the concentrate is diluted with emulsifier-containing water to the desired concentration. Disks of corn leaves (Zea mays) are sprayed with an active compound preparation of the desired concentration and, after drying, populated with caterpillars of the army worm (Spodoptera frugiperda). After the desired period of time, the effect in % is determined. 100% means that all caterpillars have been killed; 0% means that none of the caterpillars have been killed.

[4] = test system: larvae of the mustard beetle (Phaedon cochleariae); assay: Phaedon test (spray treatment); type: in vivo; details: for Kill rate in % after 7 d: 500 g/ha, spray, Brassica pekinensis disks
Protocol: as §1, with “of Chinese cabbage (Brassica pekinensis)” for “of corn leaves (Zea mays)”, “with larvae” for “with caterpillars”, “the mustard beetle (Phaedon cochleariae).” for “the army worm (Spodoptera frugiperda).”, “all beetle larvae” for “all caterpillars”, “the beetle larvae” for “the caterpillars”

[5] = test system: common spidermite (Tetranychus urticae); assay: Tetranychus test; type: in vivo; details: for Kill rate in % after 5 d: 500 ppm, spray, Phaseolus vulgaris disks
Protocol: To produce a suitable preparation of active compound, 1 part by weight of active compound is mixed with the stated amounts of solvent and emulsifier, and the concentrate is diluted with emulsifier-containing water to the desired concentration.
Disks of beans (Phaseolus vulgaris), which are infested by all stages of the common spidermite (Tetranychus urticae) are sprayed with an active compound preparation of the desired concentration.
After the desired period of time, the effect in % is determined. 100% means that all spidermites have been killed; 0% means that none of the spidermites have been killed.

[6] = test system: green peach aphid (Myzus persicae); assay: Myzus test (spray treatment, Brassica pekinensis); type: in vivo; details: for Kill rate in % after 5 d: 500 g/ha, spray, Brassica pekinensis disks
Protocol: as §1, with “Chinese cabbage (Brassica pekinensis) which are infested by all stages of the green peach aphid (Myzus persicae)” for “corn leaves (Zea mays)”, “concentration.” for “concentration and, after drying, populated with caterpillars of the army worm (Spodoptera frugiperda).”, “aphids” for “caterpillars”

Row | SMILES | activity in the Phaedon larvae test [1] | logP [2] | activity in the Phaedon test (spray treatment) [4] | Kill rate in % after 7 d [4] [%] | other results
1 | Cc1cc(C)c(C2=C(O)C(=O)N(Cc3ccccc3)C2=O)c(C)c1 [Example 5] | good activity | – | – | – | Kill rate in % after 7 d ([1]; 1000 ppm): 100%
2 | CC(C)N1C(=O)C(O)=C(c2cccc(C(F)(F)F)c2)C1=O [Example 6] | good activity | – | – | – | Kill rate in % after 7 d ([1]; 1000 ppm): 100%
3 | CC(C)(c1ccccc1)N1C(=O)C(O)=C(c2cccc(C(F)(F)F)c2)C1=O [Example 7] | good activity | – | – | – | Kill rate in % after 7 d ([1]; 1000 ppm): 100%
4 | O=C1C(O)=C(c2ccc(C(F)(F)F)cc2)C(=O)N1CC(F)(F)F [Example 8] | good activity | – | – | – | Kill rate in % after 7 d ([1]; 500 ppm): 100%
5 | O=C1C(O)=C(c2ccc(OC(F)(F)F)cc2)C(=O)N1c1ccc(OC(F)(F)F)cc1 [Example 9] | good activity | logP = 4.12^a) | – | – | Kill rate in % after 7 d ([1]; 500 ppm): 90%
6 | O=C1C(O)=C(c2ccc(Cl)cc2Br)C(=O)N1C1CCCC(C(F)(F)F)C1 (stereo not shown) [Example 186] | – | logP = 2.53^a) | good activity | 100 | activity in the Spodoptera frugiperda test (spray) [3]: good activity; Kill rate in % after 7 d [3]: 100%
7 | O=C1C(O)=C(c2ccc(Br)cc2Cl)C(=O)N1C1CCCC(C(F)(F)F)C1 (stereo not shown) [Example 187] | – | logP = 2.47^a) | good activity | 100 | –
8 | Cc1ccccc1C1=C(O)C(=O)N(C2CCCC(C(F)(F)F)C2)C1=O (stereo not shown) [Example 188] | – | logP = 3.11^a) | good activity | 100 | activity in the Spodoptera frugiperda test (spray) [3]: good activity; Kill rate in % after 7 d [3]: 100%
9 | COc1ccccc1C1=C(O)C(=O)N(C2CCCC(C(F)(F)F)C2)C1=O (stereo not shown) [Example 189] | – | logP = 3.32^a) | good activity | 83 | –
10 | O=C1C(O)=C(c2ccccc2OC(F)(F)F)C(=O)N1C1CCCC(C(F)(F)F)C1 (stereo not shown) [Example 190] | – | logP = 3.77^a) | good activity | 100 | activity in the Spodoptera frugiperda test (spray) [3]: good activity; Kill rate in % after 7 d [3]: 83%
11 | O=C1C(O)=C(c2c(Cl)cc(C(F)(F)F)cc2Cl)C(=O)N1C1CCCC(C(F)(F)F)C1 (stereo not shown) [Example 191] | – | logP = 4.05^a) | good activity | 100 | activity in the Tetranychus test [5]: good activity; Kill rate in % after 5 d [5]: 90%
12 | O=C1C(O)=C(c2cc(F)cc(F)c2F)C(=O)N1C1CCCC(C(F)(F)F)C1 (stereo not shown) [Example 193] | – | logP = 3.42^a) | good activity | 100 | activity in the Tetranychus test [5]: good activity; Kill rate in % after 5 d [5]: 90%
13 | O=C1C(O)=C(c2ccccc2[N+](=O)[O-])C(=O)N1C1CCCC(C(F)(F)F)C1 (stereo not shown) [Example 194] | – | logP = 3.01^a) | good activity | 100 | –
14 | CC1CCCC(N2C(=O)C(O)=C(c3ccccc3Br)C2=O)C1 (stereo not shown) [Example 197] | – | logP = 3.61^a) | good activity | 100 | activity in the Spodoptera frugiperda test (spray) [3]: good activity; Kill rate in % after 7 d [3]: 100%
15 | O=C1C(O)=C(c2cc(F)ccc2Br)C(=O)N1C1CCCC(C(F)(F)F)C1 (stereo not shown) [Example 198] | – | logP = 3.46^a) | good activity | 100 | –
16 | CC1CC(N2C(=O)C(O)=C(c3ccccc3Cl)C2=O)CC(C)(C)C1 (stereo not shown) [Example 199] | – | logP = 4.18^a) | good activity | 100 | –
17 | O=C1C(OCc2ccc(Cl)cc2)=C(c2ccccc2Cl)C(=O)N1C1CCCC(C(F)(F)F)C1 (stereo not shown) [Example 203] | – | – | good activity | 100 | activity in the Spodoptera frugiperda test (spray) [3]: good activity; Kill rate in % after 7 d [3]: 100%
18 | O=C1C(OCc2ccccc2)=C(c2ccccc2Cl)C(=O)N1C1CCCC(C(F)(F)F)C1 (stereo not shown) [Example 204] | – | logP = 5.01^a) | good activity | 100 | activity in the Spodoptera frugiperda test (spray) [3]: good activity; Kill rate in % after 7 d [3]: 100%
19 | CC(C)(C)C(=O)OC1=C(c2ccccc2Cl)C(=O)N(C2CCCCC2C(F)(F)F)C1=O (stereo not shown) [Example 206] | – | logP = 5.22^a) | – | – | activity in the Myzus test (spray, Brassica pekinensis) [6]: good activity; Kill rate in % after 5 d [6]: 90%
20 | Cc1ccc(S(=O)(=O)OC2=C(c3ccccc3Cl)C(=O)N(C3CCCC(C(F)(F)F)C3)C2=O)cc1 (stereo not shown) [Example 208] | – | logP = 4.89^a) | good activity | 100 | –
21 | O=C1C(O)=C(c2c(F)cccc2F)C(=O)N1C1CCC(C(F)(F)F)CC1 (stereo not shown) [Example 209] | good activity | – | – | – | Kill rate in % after 7 d ([1]; 500 ppm): 100%
22 | O=C1C(O)=C(c2ccccc2Cl)C(=O)N1C1CCC(C(F)(F)F)CC1 (stereo not shown) [Example 210] | good activity | logP = 3.59^a) | – | – | Kill rate in % after 7 d ([1]; 500 ppm): 100%
23 | O=C1C(O)=C(c2ccc(C(F)(F)F)cc2)C(=O)N1C1CCC(C(F)(F)F)CC1 (stereo not shown) [Example 211] | good activity | logP = 4.28^a) | – | – | Kill rate in % after 7 d ([1]; 500 ppm): 90%
24 | O=C1C(O)=C(c2ccccc2F)C(=O)N1C1CCCC(C(F)(F)F)C1 (stereo not shown) [Example 213] | good activity | logP = 3.42^a) | – | – | Kill rate in % after 7 d ([1]; 500 ppm): 100%
25 | Cc1ccccc1C1=C(O)C(=O)N(C2CC(C(F)(F)F)CC(C(F)(F)F)C2)C1=O (stereo not shown) [Example 216] | good activity | logP = 3.85^a) | – | – | Kill rate in % after 7 d ([1]; 500 ppm): 100%
26 | O=C1C(O)=C(c2ccccc2Br)C(=O)N1C1CCCC(C(F)(F)F)C1 (stereo not shown) [Example 218] | – | – | good activity | 100 | activity in the Spodoptera frugiperda test (spray) [3]: good activity; Kill rate in % after 7 d [3]: 100%; activity in the Myzus test (spray, Brassica pekinensis) [6]: good activity; Kill rate in % after 5 d [6]: 80%
